In paper PMC11003480, “Promising inhibition of diabetes-related enzymes and antioxidant properties of Ptilostemon casabonae leaves extract” (Journal of Enzyme Inhibition and Medicinal Chemistry, 2023):

Columns and labels:
[1] = tested on: Saccharomyces cerevisiae α-glucosidase; set-up: method as in PMID 25805337; conditions: cited from earlier work
[2] = ABTS radical scavenging activity; conditions: 50% reduction of absorbance at 734 nm after 1 min
Procedure: Briefly, the reaction between the reduced ABTS (7 mM) with potassium persulfate (2.45 mM) in an aqueous solution at room temperature for 24 h, was performed to produce free radical ABTS^.+. Then, different concentrations of extract (10 μL) were added to 1 ml of ABTS^.+, and the absorbance at 734 nm was recorded after 1 min. The activity was expressed as the concentration of sample necessary to give a 50% reduction in the original absorbance (EC50).

[3] = target: Saccharomyces cerevisiae α-glucosidase; assay: α-Glucosidase inhibition assay (pNPG substrate); type: biochemical; conditions: for α-Glucosidase Mode of inhibition: Lineweaver-Burk plot; for equilibrium constant for binding with the enzyme-substrate complex (KIS): from intercepts (1/Vmax) versus inhibitor concentration; for equilibrium constant for binding with the free enzyme (KI): from slope (Km/Vmax) versus inhibitor concentration
Procedure: The concentrations of extract required to give 50% inhibition of enzyme activity (IC50) were determined. […] The Lineweaver-Burk double reciprocal plot was used to determine the mode of α-glucosidase inhibition by performing assays at different concentrations of substrate and extract or compound. Grafit 7 (Erithacus, East Grinstead, UK) was used as data analysis software. α-Glucosidase inhibitory activity was analysed following the method described by Delogu et al.[15]. […] It was first incubated for 15 min at 37 °C. Then, 20 µL of p-nitrophenyl α-D-glucopyranoside solution (pNPG, 5 mM) was added. After further 15 min of incubation at 37 °C, the reaction was stopped by adding 50 μL of 0.2 M sodium carbonate solution. α-Glucosidase activity was determined with a 96-well microplate reader by measuring the absorbance at 405 nm. The mode of inhibition was determined, and the equilibrium constant for binding with the enzyme–substrate complex (KIS) was obtained from the vertical intercepts plotted versus inhibitor concentration.

[4] = Ferric reducing antioxidant power assay (FRAP); conditions: ferrous equivalents; 4 min, absorbance 593 nm
Procedure: Ferric reducing antioxidant power assay (FRAP) was conducted as previously described, with slight modifications. An amount of 10 µL of the extract was mixed with 2 ml of the TPTZ–ferric solution and than incubated for 4 min at room temperature in the dark. The absorbance was read at 593 nm and the result was expressed as ferrous equivalents (FE; mg Fe^2+ equivalents/mL solution). Ascorbic acid was used as reference compound.

Structure (SMILES): O=C(/C=C/c1ccc(O)c(O)c1)O[C@@H]1CC(O)(C(=O)O)C[C@@H](OC(=O)/C=C/c2ccc(O)c(O)c2)C1O (stereo partly shown) [3,5-dicaffeoylquinic acid, 3,5-Dicaffeoylquinic acid]
- α-glucosidase inhibition (in words) [1]: able to inhibit this enzyme

Structure (SMILES): Cc1c(C)c2c(c(C)c1O)CCC(C)(C(=O)O)O2 (stereo not shown) [Trolox, 6-hydroxy-2,5,7,8-tetramethylchromane-2-carboxylic acid]
- ABTS EC50 [2]: 3.4 ± 0.3 mg/L

Structure (SMILES): O=c1cc(-c2ccc(O)cc2)oc2cc(O)cc(O)c12 [Apigenin (23), Apigenin]
- α-Glucosidase IC50 [3]: 3.88 ± 1.48 mg/L
- α-Glucosidase Mode of inhibition [3]: Mixed
- α-Glucosidase Mode of inhibition ([3]; listed as apigenin): mixed-type inhibition
- equilibrium constant for binding with the enzyme-substrate complex (KIS) [3]: 19.6 µg/mL
- equilibrium constant for binding with the free enzyme (KI) [3]: 6.5 mg/L

Structure (SMILES): C[C@@H]1O[C@@H](OC[C@H]2O[C@@H](Oc3c(-c4ccc(O)c(O)c4)oc4cc(O)cc(O)c4c3=O)[C@H](O)[C@@H](O)[C@@H]2O)[C@H](O)[C@H](O)[C@H]1O [Rutin (4), Quercetin 3-O-rutinoside (Rutin)]
- α-Glucosidase IC50 [3]: 20.54 ± 4.45 mg/L
- α-Glucosidase Mode of inhibition [3]: Mixed
- α-Glucosidase Mode of inhibition ([3]; listed as rutin): mixed-type inhibition
- equilibrium constant for binding with the enzyme-substrate complex (KIS) [3]: 80.2 µg/mL
- equilibrium constant for binding with the free enzyme (KI) [3]: 9.3 mg/L

Structure (SMILES): O=C(/C=C/c1ccc(O)c(O)c1)O[C@H]1[C@H](O)C[C@](O)(C(=O)O)C[C@H]1OC(=O)/C=C/c1ccc(O)c(O)c1 [4,5-dicaffeoylquinic acid]
- α-glucosidase inhibition (in words) [1]: able to inhibit this enzyme

Structure (SMILES): O=C(/C=C/c1ccc(O)c(O)c1)O[C@@H]1C[C@](O)(C(=O)O)C[C@@H](O)[C@H]1O [Chlorogenic acid (1), 5-O-Caffeoylquinic acid (Chlorogenic acid)]
- α-Glucosidase IC50 [3]: >100 mg/L
- α-glucosidase inhibitory activity (in words) [3]: no inhibitory activity

Structure (SMILES): O=C(/C=C/c1ccc(O)c(O)c1)O[C@@H]1C[C@](OC(=O)/C=C/c2ccc(O)c(O)c2)(C(=O)O)C[C@@H](O)[C@H]1O [1,5-Dicaffeoylquinic acid (9), 1,5-Dicaffeoylquinic acid]
- α-Glucosidase IC50 [3]: 36.64 ± 0.07 mg/L
- α-Glucosidase Mode of inhibition [3]: Uncompetitive
- equilibrium constant for binding with the enzyme-substrate complex (KIS) [3]: 69.4 µg/mL

Structure (SMILES): O=C1O[C@H]([C@@H](O)CO)C(O)=C1O [Ascorbic acid]
- FRAP [4]: 1.81 ± 0.13 mg FE/mL
